Laboratory results from PMC8236452, “Pharmacokinetics and safety of rucaparib in patients with advanced solid tumors and hepatic impairment” (Cancer Chemotherapy and Pharmacology, 2021).

Key:
[1] = system: patients with advanced solid tumors; assay: Safety and tolerability (TEAEs) after a single oral dose of rucaparib 600 mg; assay type: in vivo, human; conditions: for TEAE: Abdominal pain / TEAE: Cholangitis / TEAE: Hyperbilirubinemia / TEAE: Hypokalemia: Grade 3 event; for TEAE: Multiple organ dysfunction syndrome: Grade 5 event
Experimental: Safety and tolerability assessments comprised adverse events, clinical laboratory parameters, vital signs, 12-lead ECG, physical examination, and ECOG PS. For part 1 of this study, symptom-associated physical examination and safety laboratory tests, including clinical chemistry, hematology, coagulation, and urinalysis, were performed on day 7 after administration of the first dose of the study medication; 12-lead ECGs were performed 2 and 4 h postdose. All safety assessments were performed at the end of the treatment visit. Treatment-emergent adverse events (TEAEs) were defined as adverse events with an onset date on or after the date of first dose of study treatment until 28 days after the last dose. Causality of treatment-emergent adverse events was evaluated by investigators based on clinical and scientific data for rucaparib, including previously observed and known reactions, temporal relationship of event to rucaparib administration, patient response on […] rechallenge with the drug, medical history and ongoing concomitant conditions, natural course of the disease, potential effects of concomitant medications and interactions with the study drug, and biological plausibility of the event based on mechanism of action of rucaparib.

[2] = design: method as in PMID 28222073; conditions: immediate-release tablet; cited from earlier work
[3] = Moderate hepatic impairment (NCI-ODWG, n = 8)
[4] = Normal hepatic function (NCI-ODWG, n = 8)

## CNCc1ccc(-c2[nH]c3cc(F)cc4c3c2CCNC4=O)cc1 [rucaparib]
[1]; [3]
  TEAE: Anemia: 1 (12.5) n (%)
  TEAE: Ascites: 1 (12.5) n (%)
  TEAE: Body temperature increased: 1 (12.5) n (%)
  TEAE: Conjunctival hemorrhage: 1 (12.5) n (%)
  TEAE: Decreased appetite: 0 n (%)
  TEAE: Nausea: 0 n (%)
  TEAE: Pyrexia: 1 (12.5) n (%)
  TEAE: Renal failure: 1 (12.5) n (%)
  TEAE: Thrombocytopenia: 1 (12.5) n (%)
  TEAE: Urinary tract infection: 1 (12.5) n (%)
  TEAEs: Patients with any event: 6 (75.0) n (%)
  TEAE: Abdominal pain: 1 (12.5) n (%)
  TEAE: Cholangitis: 1 (12.5) n (%)
  TEAE: Hyperbilirubinemia: 1 (12.5) n (%)
  TEAE: Hypokalemia: 1 (12.5) n (%)
  TEAE: Multiple organ dysfunction syndrome: 1 (12.5) n (%)
[1]; [4]
  TEAE: Anemia: 0 n (%)
  TEAE: Ascites: 0 n (%)
  TEAE: Body temperature increased: 0 n (%)
  TEAE: Conjunctival hemorrhage: 0 n (%)
  TEAE: Decreased appetite: 1 (12.5) n (%)
  TEAE: Nausea: 1 (12.5) n (%)
  TEAE: Pyrexia: 0 n (%)
  TEAE: Renal failure: 0 n (%)
  TEAE: Thrombocytopenia: 0 n (%)
  TEAE: Urinary tract infection: 0 n (%)
  TEAEs: Patients with any event: 2 (25.0) n (%)
  TEAE: Abdominal pain: 0 n (%)
  TEAE: Cholangitis: 0 n (%)
  TEAE: Hyperbilirubinemia: 0 n (%)
  TEAE: Hypokalemia: 0 n (%)
  TEAE: Multiple organ dysfunction syndrome: 0 n (%)
[1]; Overall (N = 16)
  TEAE: Anemia: 1 (6.3) n (%)
  TEAE: Ascites: 1 (6.3) n (%)
  TEAE: Body temperature increased: 1 (6.3) n (%)
  TEAE: Conjunctival hemorrhage: 1 (6.3) n (%)
  TEAE: Decreased appetite: 1 (6.3) n (%)
  TEAE: Nausea: 1 (6.3) n (%)
  TEAE: Pyrexia: 1 (6.3) n (%)
  TEAE: Renal failure: 1 (6.3) n (%)
  TEAE: Thrombocytopenia: 1 (6.3) n (%)
  TEAE: Urinary tract infection: 1 (6.3) n (%)
  TEAEs: Patients with any event: 8 (50.0) n (%)
  TEAE: Abdominal pain: 1 (6.3) n (%)
  TEAE: Cholangitis: 1 (6.3) n (%)
  TEAE: Hyperbilirubinemia: 1 (6.3) n (%)
  TEAE: Hypokalemia: 1 (6.3) n (%)
  TEAE: Multiple organ dysfunction syndrome: 1 (6.3) n (%)
[1]; after completion of PK assessment in Part 1, both in the moderate hepatic impairment group
  Patients who withdrew from the study due to a TEAE: two
[1]; all 16 patients
  Patients who experienced at least 1 TEAE: 50%
[1]; all 16 patients, abdominal pain, ascites, nausea
  System Organ Class TEAEs: gastrointestinal disorders: 18.8%
[1]; all in the moderate hepatic impairment group
  Patients with at least 1 TEAE of grade 3 or higher: Four
[1]; grade 1 anemia and grade 1 thrombocytopenia, one patient, moderate hepatic impairment group
  TEAEs considered treatment related: 2 TEAEs
[1]; moderate hepatic impairment group
  Patients who experienced at least 1 TEAE: 75.0%
[1]; normal hepatic function group
  Patients who experienced at least 1 TEAE: 25.0%
[1]; single oral rucaparib 600 mg
  Trends in clinical laboratory parameters, vital signs, ECG, physical examinations: no clinically relevant treatment-related trends observed
[2]
  absolute bioavailability, range: 30–45%
  mean absolute bioavailability: 36%
